Assay results: US20220411397A1, “ANALOGUES OF N-ACYL-HOMOSERINE LACTONES AND PHARMACEUTICAL COMPOSITION COMPRISING SAME” (SORBONNE UNIVERSITE, priority 2019, published 2022)

Legend:
Raw 264.7 murine cells = test: Stimulation of Raw 264.7 murine cells by IFN-γ/LPS, IL-6 secretion (ELISA); format: cell-based; details: for activity on IFN-γ/LPS-stimulated Raw 264.7 cells compared with natural 3-oxo-C12-HSL: 1-50 μM range
From the text: 1.1.2. The Raw 264.7 Cell Line • The Raw 264.7 cell line consists of murine cells of macrophage type derived from cell line transformed by the virus of the Abelson leukaemia and providing from BALB/c mice. This cell line is very often used as a model of macrophages in vitro. The Raw 264.7 cells are capable of a phagocytosis and a pinocytosis, can kill the target cells by antibody-dependent cytotoxicity, and secrete a wide range of inflammatory cytokines as well as nitric oxide (NO). In addition, the Raw 264.7 cells are a very convenient cell line: the cells grow rapidly, appreciate the small diameter wells, and should be used before confluence. These conditions make it an advantageous line for the compound screening.
The cells were used between the passages 13 and 26. • The Raw 264.7 cells used are from the ATCC bank. They were grown in DMEM supplemented with 10% heat-inactivated foetal calf serum and 1% L-glutamine to 200 mM, and maintained at 37° C. with a 5% CO2/air atmosphere. The medium was changed every two days.
1.2.2. Stimulation of Raw 264.7 with LIPS and IFN-γ • Raw 264.7 cells were seeded in 12-well plates at 75,000 cells/well, or 24-well plates at 40,000 cells/well, to reach 80-90% confluence after 3 days of culture. […] The cells were harvested by scraping in 100 μL of PBS 1×/well and stored at −80° C. before the quantification of the total protein. […]
1.2.5. Quantification of the Murine Cytokines • The levels of IL-6 murine cytokines produced by cells were determined in cell supernatants or lysates using the commercially available “BD OptEIA Mouse IL-6 ELISA Set” from BD Biosciences (San Jose, Calif., USA, ref. 555240). All the ELISA kits were used according to the instructions of the manufacturer. • The cytokine rates were first normalized to the protein content determined in the corresponding cell lysates. […]

Raw264.7 murine cells = test: Cytotoxicity test, LDH secretion, Raw264.7; format: cell-based; details: for cytotoxicity (LDH), Raw264.7: stimulated, low concentrations
Procedure: 1.2.6. […] To measure the concentration of LDH in the cell lysate, 800 μL of NADH was added to 10 μL of […] and 190 μL of 0.1 M PBS in a plastic cuvette, and the decrease in the absorbance at 340 nm was monitored for 1 min. […] The percentage of cytotoxicity could be established with the formula: […]
The cytotoxicity of the tested and control compounds was evaluated using a measurement test of the LDH (Lactate Dehydrogenase) secretion. This test is based on the measurement of the amount of LDH secreted by the cells in their supernatant, compared to the amount of LDH that will remain in the intracellular compartment. This ratio provides an indication of the membrane damage suffered by the cells, and thus of the cytotoxicity of the compound.
Two methods were used to perform this test: the measurement using an extemporaneously prepared pyruvate/NADH solution, or using the Cytotoxicity Detection Kit^PLUS(LDH) from the manufacturer Roche (Sigma-Aldrich).
Pyruvate/NADH method: pyruvate/NADH solution prepared with 4.1 mg pyruvic acid (0.62 mM) and 7.7 mg NADH (0.18 mM) in 60 ml of 0.1M PBS (pH 7.4).
For the measurement of the LDH concentration in the supernatants, 800 μL of NADH was added to 200 μL of supernatant in plastic spectrometry cuvettes, and the decrease in absorbance of the final solution was read at 340 nm for 1 min. For the measurement of the LDH concentration in the cell lysates, 800 μL of NADH was added to 10 μL of cell lysates and 190 μL of 0.1M PBS in plastic spectrometry cuvettes, and the decrease in absorbance of the final solution was read at 340 nm for 1 min. The percentage of LDH secreted was then calculated by the ratio of the decay slopes of the absorbance of the supernatants and of the cell lysates (respectively).
Cytotoxicity Detection Kit^PLUS (LDH) method: absorbance test performed according to the manufacturer's instructions. The percentage of LDH secreted was then calculated by the formula: […]

CCCCCCCCCC(=O)CC(=O)N[C@H]1CCCC[C@@H]1O [I-2, N-[(1S,2S)-2-hydroxycyclohexyl]-3-oxo-dodecanamide]
activity on IFN-γ/LPS-stimulated Raw 264.7 cells compared with natural 3-oxo-C12-HSL (Raw 264.7 murine cells): more active than the reference molecule 3-oxo-C12-HSL
cytotoxicity (LDH), Raw264.7 (Raw264.7 murine cells): not cytotoxic at low concentrations

CCCCCCCCCC(=O)CC(=O)N[C@H]1CCCC[C@H]1O [I-4, N-[(1S,2R)-2-hydroxycyclohexyl]-3-oxo-dodecanamide]
activity on IFN-γ/LPS-stimulated Raw 264.7 cells compared with natural 3-oxo-C12-HSL (Raw 264.7 murine cells): a higher activity than the natural 3-oxo-C12 HSL
toxicity (LDH), Raw264.7 (Raw264.7 murine cells; at 50 μM): toxic
LDH secreted compared with the diastereomer, Raw264.7 (Raw264.7 murine cells; at all concentrations): greater than that secreted in the presence of (S,S)-3oxoC12-ACH
cytotoxicity (LDH), Raw264.7 (Raw264.7 murine cells): not cytotoxic at low concentrations

CCCCCCCCCC(=O)CC(=O)Nc1cc(Cl)ccc1O [I-6, N-(5-chloro-2-hydroxyphenyl)-3-oxododecanamide]
activity on IFN-γ/LPS-stimulated Raw 264.7 cells compared with natural 3-oxo-C12 HSL (Raw 264.7 murine cells; 10-50 μM range): a significantly higher activity than that of the natural 3-oxo-C12 HSL
toxicity (LDH), Raw264.7 (Raw264.7 murine cells; any of the concentrations tested): not toxic
